# According to patent US6242199A, “Assays for growth hormone secretagogue receptors” (Merck & Co., Inc., priority 1998, dated 2001):
# Tests used:
# [1] = biological target: T1, growth hormone secretagogue receptor (GHSR), porcine anterior pituitary membranes (Sus scrofa, UniProt Q95254); test: [35S]-Compound A radioreceptor binding, porcine anterior pituitary membranes
# T1 construct: Frozen anterior pituitary glands from male swine (50-80 Kg); from tissue; host or cells: anterior pituitary glands of male swine (50-80 kg), crude membranes
# T1 sequence (Q95254 whole entry): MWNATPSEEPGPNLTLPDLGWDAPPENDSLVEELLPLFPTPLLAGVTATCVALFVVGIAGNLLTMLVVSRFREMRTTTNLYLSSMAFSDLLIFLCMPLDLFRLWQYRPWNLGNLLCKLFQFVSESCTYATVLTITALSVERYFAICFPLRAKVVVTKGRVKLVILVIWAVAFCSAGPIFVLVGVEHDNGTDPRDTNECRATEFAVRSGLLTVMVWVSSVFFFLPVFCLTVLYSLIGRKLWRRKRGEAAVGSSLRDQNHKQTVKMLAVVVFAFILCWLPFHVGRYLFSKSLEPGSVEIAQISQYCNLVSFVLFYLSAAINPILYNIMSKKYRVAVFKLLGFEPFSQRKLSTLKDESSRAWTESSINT
# Description: Frozen anterior pituitary glands from male swine (50-80 Kg) or from the Wistar male rats (150-200 g) were homogenized in a tissue homogenizer in ice-cold buffer (50 mM Tris-HCl buffer, pH 7.4, 5 mM MgCl2, 2.5 mM EDTA, 0.1% bovine serum albumin and 30 μg/ml bacitracin). The homogenates were centrifuged for 5 min at 1,400×g and the resulting supernatants were then centrifuged at 34,000×g for 20 min. The pellets were resuspended in same buffer to a 1,500 μg protein/ml and stored at -80° C. Protein was determined by a Bio-Rad method (Bio-Rad Laboratories, Richmond, Calif.).
# Aliquots were incubated at 20° C. for 60 min and bound radioligand was separated from free by filtration through GF/C filters pretreated with 0.5% of polyethylenimine in a Brandel cell harvester. […] Assays were carried out in triplicate and experiments repeated at least three times.
# [2] = test system: swine growth hormone secretagogue receptor (GHSR); test: Aequorin bioluminescence assay in Xenopus oocytes injected with swine pituitary mRNA / cDNA library pool or clone cRNA; format: cell-based; settings: 1 μM
# Description: (§1) Xenopus laevis oocytes were isolated and injected using standard methods previously described by Arena, et. al. 1991, Mol. Pharmacol. 40, 368-374, which is hereby incorporated by reference. Adult female Xenopus Laevis frogs (purchased from Xenopus One, Ann Arbor, Mich.) were anesthetized with 0.17% tricaine methanesulfonate and the ovaries were surgically removed and placed in a 60 mm culture dish (Falcon) containing OR-2 medium without calcium (82.5 mM NaCl, 2 mM KCl, 2.5 mM sodium pyruvate, 1 mM MgCl2, 100 μ/ml penicillin, 1 mg/ml streptomycin, 5 mM HEPES, pH=7.5; ND-96 from Specialty Media, NJ). Ovarian lobes were broken open, rinsed several times, and oocytes were released from their sacs by collagenase A digestion (Boehringer-Mannheim; 0.2% for 2-3 hours at 18° C.) in calcium-free OR-2. […]
# (§2) The ABA requires injection of library pool cRNA (25 ng/egg for pool sizes of 500 to 10,000) with aequorin cRNA (2 ng/egg) supplemented with the G-protein alpha subunit Gα11 (2 ng/egg). […] Polymerase chain reaction (PCR) was utilized to generate a DNA fragment corresponding to the open reading frame (ORF) of the aequorin cDNA with an optimized Kosak translational initiation sequence (Inouye, S. et. al., 1985, Proc. Natl. Acad. Sci. USA 82:3154-3158). […]
# [3] = test system: swine Type II GHSR; test: Aequorin bioluminescence assay in Xenopus oocytes, swine Type II GHSR; format: cell-based; settings: swine Type II-derived cRNA truncated in TM-6
# Description: as §1, §2
# [4] = test system: rat GHSR type Ia; test: Aequorin bioluminescence in transfected 293-AEQ17 (HEK-293) cells, rat GHSR; format: cell-based; settings: three replicate samples; mobilization of intracellular calcium
# Description: Functional activity of the ORF construct was assessed by transfecting (using lipofectamine; GIBCO/BRL) 5 μg of plasmid DNA into the aequorin expressing reporter cell line (293-AEQ17) cultured in 60 mm dishes. Following approximately 40 hours of expression the aequorin in the cells was charged for 2 hours with coelenterazine, the cells were harvested, washed and pelleted by low speed centrifugation into luminometer tubes. Functional activity was determined by measuring Compound A dependent mobilization of intracellular calcium and concommitant calcium induced aequorin bioluminescence.
# [5] = test system: human Type II GHSR; test: Aequorin bioluminescence assay in Xenopus oocytes, human Type II GHSR; format: cell-based; settings: human Type II-derived cRNA truncated in TM-6
# Description: as §1, §2
# [6] = test system: swine Type I GHSR; test: Aequorin bioluminescence assay in Xenopus oocytes, swine Type I GHSR; format: cell-based; settings: swine Type I cRNA in oocytes; tested from 1 μM down
# Description: as §1, §2
# [7] = test system: human Type I GHSR; test: Aequorin bioluminescence assay in Xenopus oocytes, human Type I GHSR; format: cell-based; settings: human Type I cRNA in oocytes; tested from 1 μM down
# Description: as §1, §2
smiles,measurement,setting,value
"CC(C)(N)C(=O)N[C@H](COCc1ccccc1)C(=O)N1CCC2(CC1)CN(S(C)(=O)=O)c1ccccc12 [Compound A, (N-[1(R)-[1,2-dihydro-1-methanesulfonlylspiro[3H-indole-3,4'-piperidin]-1'-yl)carbonyl]-2-(phenylmethyloxy)-ethyl]-2-amino-2-methyl-propanamide]",specific binding of [35S]-Compound A detected in the absence of Mg2+,"[1]; absence of Mg2+, in comparison with control (10 mM Mg2+)",15-25%
same,Ki,"[1]; competition with [35S]-Compound A, read-out: inhibition constant, Ki",0.24 nM
same,concentration (Bmax),"[1]; porcine anterior pituitary membranes, Scatchard analysis, n=4",6.3±0.6 fmol/mg of protein
same,Kd,"[1]; porcine anterior pituitary membranes, Scatchard analysis, n=4, read-out: apparent dissociation constant (KD)",0.161 ± 0.011 nM
same,specific binding of total binding,"[1]; porcine membranes, nonspecific in 500 nM unlabeled Compound A",65-85%
same,displacement of / competition with [35S]-Compound A binding (in words),"[1]; unlabeled competitor, FIG. 24",completely displaced
same,bioluminescence response (in words),[2]; clones 7-3 and 28-18,positive bioluminescence response
same,bioluminescent signal (in words),[2]; pool P541,positive bioluminescent signal
same,response (in words),[3],failed to give a response
same,Compound A induced luminescent response (in words),[4],Compound A induced luminescent responses
same,response (in words),[5],failed to give a response
same,lowest Compound A concentration giving a response,[6],0.1 nM
same,lowest Compound A concentration giving a response,[7],0.1 nM
